Source: patent publication US11098063B2, “Diazabicyclic substituted imidazopyrimidines and their use for the treatment of breathing disorders” (Bayer Aktiengesellschaft, priority 2017, dated 2021)

Legend:
human TASK-1 = human TASK-1 (Homo sapiens (Human), UniProt O14649); test: Inhibition of recombinant TASK-1 in stably transfected CHO cells (voltage-sensitive dye, KCl depolarization); assay type: cell-based; settings: depolarization by 40 mM potassium chloride
Experimental: (§1) B-2. Inhibition of Recombinant TASK-1 and TASK-3 In Vitro
(§2) The investigations on the inhibition of the recombinant TASK-1 and TASK-3 channels were conducted using stably transfected CHO cells. The compounds according to the invention were tested in this case by application of 40 mM potassium chloride in the presence of a voltage-sensitive dye according to the method described in detail in the following references [Whiteaker et al., Validation of FLIPR membrane potential dye for high-throughput screening of potassium channel modulators, J. Biomol. Screen. 6 (5), 305-312 (2001); Molecular Devices FLIPR Application Note: Measuring membrane potential using the FLIPR® membrane potential assay kit on Fluorometric Imaging Plate Reader (FLIPR®) systems, http://www.moleculardevices.com/reagents-supplies/assay-kits/ion-channels/flipr-membrane-potential-assay-kits]. The activity of the test substances was determined as their ability to inhibit a depolarization induced in the recombinant cells by 40 mM potassium chloride. The concentration which can block half of this depolarization is referred to as IC50.

human TASK-3 = human TASK-3 (Homo sapiens (Human), UniProt Q9NPC2); test: Inhibition of recombinant TASK-3 in stably transfected CHO cells (voltage-sensitive dye, KCl depolarization); assay type: cell-based; settings: depolarization by 40 mM potassium chloride
human TASK-3, sequence (Q9NPC2 whole entry): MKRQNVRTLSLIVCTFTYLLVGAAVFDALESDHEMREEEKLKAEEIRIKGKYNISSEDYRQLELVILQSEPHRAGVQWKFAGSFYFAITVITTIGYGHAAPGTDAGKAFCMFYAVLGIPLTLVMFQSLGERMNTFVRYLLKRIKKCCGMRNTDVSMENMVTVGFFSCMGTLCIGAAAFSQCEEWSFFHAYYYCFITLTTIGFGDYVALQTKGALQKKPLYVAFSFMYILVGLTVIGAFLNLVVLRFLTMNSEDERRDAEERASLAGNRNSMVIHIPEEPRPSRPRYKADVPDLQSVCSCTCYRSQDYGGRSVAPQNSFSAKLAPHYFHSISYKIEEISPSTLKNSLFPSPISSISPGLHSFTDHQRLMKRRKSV
Experimental: as §1, §2

human TASK-1, sequence (O14649 whole entry): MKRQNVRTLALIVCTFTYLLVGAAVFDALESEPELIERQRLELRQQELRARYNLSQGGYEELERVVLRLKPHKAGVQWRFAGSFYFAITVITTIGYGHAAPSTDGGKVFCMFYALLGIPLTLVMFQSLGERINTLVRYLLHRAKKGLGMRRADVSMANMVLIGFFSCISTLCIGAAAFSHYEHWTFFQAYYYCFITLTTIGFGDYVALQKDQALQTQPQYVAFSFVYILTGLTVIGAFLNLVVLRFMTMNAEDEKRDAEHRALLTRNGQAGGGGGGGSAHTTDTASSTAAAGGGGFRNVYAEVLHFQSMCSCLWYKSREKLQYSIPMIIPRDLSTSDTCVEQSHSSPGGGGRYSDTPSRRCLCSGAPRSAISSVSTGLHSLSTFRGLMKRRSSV

SMILES | IC50 (human TASK-1) | IC50 (human TASK-3)
Cc1nc(C)c(C(=O)N2C3CCC2CN(Cc2c(-c4ccc(Cl)cc4)nc4ncccn24)C3)o1 [Example 50] | 3300 nM | 430 nM
Cc1sc(C(=O)N2C3CCC2CN(Cc2c(-c4ccc(Cl)cc4)nc4ncccn24)C3)nc1Br [Example 52] | 1300 nM | 52 nM
O=C(c1ncoc1C1CC1)N1C2CCC1CN(Cc1c(-c3ccc(Cl)cc3)nc3ncccn13)C2 [Example 53] | 620 nM | 19 nM
CC(C)c1nc(C(=O)N2C3CCC2CN(Cc2c(-c4ccc(Cl)cc4)nc4ncccn24)C3)cs1 [Example 54] | 860 nM | 13 nM
O=C(c1cncs1)N1C2CCC1CN(Cc1c(-c3ccc(Cl)cc3)nc3ncccn13)C2 [Example 55] | 2900 nM | 170 nM
Cc1nc(C(=O)N2C3CCC2CN(Cc2c(-c4ccc(Cl)cc4)nc4ncccn24)C3)c(C)o1 [Example 56] | 5600 nM | 54 nM
COc1nc(C(F)(F)F)c(C(=O)N2C3CCC2CN(Cc2c(-c4ccc(Cl)cc4)nc4ncccn24)C3)s1 [Example 57] | 6400 nM | 57 nM
O=C(c1csc(C(F)(F)F)n1)N1C2CCC1CN(Cc1c(-c3ccc(Cl)cc3)nc3ncccn13)C2 [Example 58] | 1600 nM | 17 nM
Cc1scnc1C(=O)N1C2CCC1CN(Cc1c(-c3ccc(Cl)cc3)nc3ncccn13)C2 [Example 59] | 3000 nM | 39 nM
O=C(c1nc(C(F)(F)F)cs1)N1C2CCC1CN(Cc1c(-c3ccc(Cl)cc3)nc3ncccn13)C2 [Example 60] | 670 nM | 430 nM
O=C(c1cscn1)N1C2CCC1CN(Cc1c(-c3ccc(Cl)cc3)nc3ncccn13)C2 [Example 61] | 3000 nM | 640 nM
CNc1cccc(C(=O)N2C3CCC2CN(Cc2c(-c4ccc(C(C)C)cc4)nc4ncccn24)C3)n1 [Example 62] | 6900 nM | 70 nM
COc1cccc(C(=O)N2C3CCC2CN(Cc2c(-c4ccc(C(C)C)cc4)nc4ncccn24)C3)n1 [Example 63] | 1700 nM | 15 nM
CC(C)c1ccc(-c2nc3ncccn3c2CN2CC3CCC(C2)N3C(=O)c2ccccc2F)cc1 [Example 64] | 1100 nM | 8.4 nM
COc1cccc(C(=O)N2C3COCC2CN(Cc2c(-c4ccc(C(C)C)cc4)nc4ncccn24)C3)n1 [Example 66] | 3700 nM | 20 nM
COc1ccc(Cl)c(C(=O)N2C3COCC2CN(Cc2c(-c4ccc(C(C)C)cc4)nc4ncccn24)C3)n1 [Example 67] | 1200 nM | 17 nM
CC(C)c1ccc(-c2nc3ncccn3c2CN2CC3COCC(C2)N3C(=O)c2ccccc2F)cc1 [Example 68] | 9400 nM | 87 nM
COc1ccc(Cl)c(C(=O)N2CC3CCC2CN3Cc2c(-c3ccc(C(C)C)cc3)nc3ncccn23)n1 (centres unmarked) [Example 69] | 2800 nM | 22 nM
CC(C)c1ccc(-c2nc3ncccn3c2CN2CC3CCC2CN3C(=O)c2ncoc2C2CC2)cc1 (centres unmarked) [Example 70] | 1900 nM | 20 nM
COc1ccc(F)c(C(=O)N2CC3CCC2CN3Cc2c(-c3ccc(C(C)C)cc3)nc3ncccn23)n1 (centres unmarked) [Example 71] | 14000 nM | 110 nM
COc1ccc(F)c(C(=O)N2CC3CCC2CN3Cc2c(-c3ccc(C(C)C)cc3)nc3ncccn23)n1 (centres unmarked) [Example 72] | 2100 nM | 29 nM
COc1cccc(C(=O)N2CC3CCC2CN3Cc2c(-c3ccc(C(C)C)cc3)nc3ncccn23)n1 (centres unmarked) [Example 73] | 9100 nM | 81 nM

SMILES | IC50 (human TASK-1) | IC50 (human TASK-3)
COc1cccc(C(=O)N2CC3CCC2CN3Cc2c(-c3ccc(C(C)C)cc3)nc3ncccn23)n1 (centres unmarked) [Example 74] | 3400 nM | 61 nM
CC(C)c1ccc(-c2nc3ncccn3c2CN2CC3CCC2CN3C(=O)c2cccc(OC(F)F)n2)cc1 (centres unmarked) [Example 75] | 3800 nM | 51 nM
CC(C)c1ccc(-c2nc3ncccn3c2CN2CC3CCC2CN3C(=O)c2cccc(OC(F)F)n2)cc1 (centres unmarked) [Example 76] | 13000 nM | 56 nM
COc1ccc(C)c(C(=O)N2CC3CCC2CN3Cc2c(-c3ccc(C(C)C)cc3)nc3ncccn23)n1 (centres unmarked) [Example 77] | 720 nM | 4.9 nM
COc1ccc(C)c(C(=O)N2CC3CCC2CN3Cc2c(-c3ccc(C(C)C)cc3)nc3ncccn23)n1 (centres unmarked) [Example 78] | 3800 nM | 24 nM
COc1ccc(F)c(C(=O)N2CC3CCC2CN3Cc2c(-c3ccc(Br)cc3)nc3ncccn23)n1 (centres unmarked) [Example 81] | 820 nM | 21 nM
COc1ccc(F)c(C(=O)N2C3CCC2CN(Cc2c(-c4ccc(Br)cc4)nc4ncccn24)C3)n1 [Example 82] | 670 nM | 37 nM
O=C(c1ccccc1F)N1C2CCC1CN(Cc1c(-c3ccc(Br)cc3)nc3ncccn13)C2 [Example 83] | 250 nM | 14 nM
O=C(C1CCCC1)N1C2CCC1CN(Cc1c(-c3ccc(Br)cc3)nc3ncccn13)C2 [Example 84] | 93 nM | 4.6 nM
O=C(Nc1ccc(F)cc1F)N1C2CCC1CN(Cc1c(-c3ccc(Cl)cc3)nc3ncccn13)C2 [Example 85, 3-{[2-(4-Chlorophenyl)imidazo[1,2-a]pyrimidin-3-yl]methyl}-N-(2,4-difluorophenyl)-3,8-diazabicyclo[3.2.1]octane-8-carboxamide] | 30000 nM | 1000 nM
CC(C)NC(=O)N1C2CCC1CN(Cc1c(-c3ccc(Cl)cc3)nc3ncccn13)C2 [Example 86, 3-{[2-(4-chlorophenyl)imidazo[1,2-a]pyrimidin-3-yl]methyl}-N-isopropyl-3,8-diazabicyclo[3.2.1]octane-8-carboxamide] | 7700 nM | 430 nM
O=C(Nc1cccc(Cl)c1)N1C2CCC1CN(Cc1c(-c3ccc(Cl)cc3)nc3ncccn13)C2 [Example 89, N-(3-chlorophenyl)-3-{[2-(4-chlorophenyl)imidazo[1,2-a]pyrimidin-3-yl]methyl}-3,8-diazabicyclo[3.2.1]octane-8-carboxamide] | 30000 nM | 850 nM
O=C(Nc1c(Cl)cccc1Cl)N1C2CCC1CN(Cc1c(-c3ccc(Cl)cc3)nc3ncccn13)C2 [Example 91, 3-{[2-(4-chlorophenyl)imidazo[1,2-a]pyrimidin-3-yl]methyl}-N-(2,6-dichlorophenyl)-3,8-diazabicyclo[3.2.1]octane-8-carboxamide] | 20000 nM | 410 nM
Cc1cccc(C)c1NC(=O)N1C2CCC1CN(Cc1c(-c3ccc(Cl)cc3)nc3ncccn13)C2 [Example 92, 3-{[2-(4-chlorophenyl)imidazo[1,2-a]pyrimidin-3-yl]methyl}-N-(2,6-dimethylphenyl)-3,8-diazabicyclo[3.2.1]octane-8-carboxamide] | 15000 nM | 270 nM
O=C(Nc1ccccc1F)N1C2CCC1CN(Cc1c(-c3ccc(Cl)cc3)nc3ncccn13)C2 [Example 93, 3-{[2-(4-chlorophenyl)imidazo[1,2-a]pyrimidin-3-yl]methyl}-N-(2-fluorophenyl)-3,8-diazabicyclo[3.2.1]octane-8-carboxamide] | 12000 nM | 260 nM
O=C(Nc1cccc(Cl)c1Cl)N1C2CCC1CN(Cc1c(-c3ccc(Cl)cc3)nc3ncccn13)C2 [Example 94, 3-{[2-(4-chlorophenyl)imidazo[1,2-a]pyrimidin-3-yl]methyl}-N-(2,3-dichlorophenyl)-3,8-diazabicyclo[3.2.1]octane-8-carboxamide] | 30000 nM | 160 nM
CCc1ccccc1NC(=O)N1C2CCC1CN(Cc1c(-c3ccc(Cl)cc3)nc3ncccn13)C2 [Example 95, 3-{[2-(4-chlorophenyl)imidazo[1,2-a]pyrimidin-3-yl]methyl}-N-(2-ethylphenyl)-3,8-diazabicyclo[3.2.1]octane-8-carboxamide] | 3000 nM | 41 nM
O=C(Nc1cc(C(F)(F)F)ccc1Cl)N1C2CCC1CN(Cc1c(-c3ccc(Cl)cc3)nc3ncccn13)C2 [Example 97, 3-{[2-(4-chlorophenyl)imidazo[1,2-a]pyrimidin-3-yl]methyl}-N-[2-chloro-5-(trifluoromethyl)phenyl]-3,8-diazabicyclo[3.2.1]octane-8-carboxamide] | 31000 nM | 450 nM
CCc1cccc(C)c1NC(=O)N1C2CCC1CN(Cc1c(-c3ccc(Cl)cc3)nc3ncccn13)C2 [Example 98, 3-{[2-(4-chlorophenyl)imidazo[1,2-a]pyrimidin-3-yl]methyl}-N-(2-ethyl-6-methylphenyl)-3,8-diazabicyclo[3.2.1]octane-8-carboxamide] | 9000 nM | 160 nM
Cc1ccc(C)c(NC(=O)N2C3CCC2CN(Cc2c(-c4ccc(Cl)cc4)nc4ncccn24)C3)c1 [Example 99, 3-{[2-(4-chlorophenyl)imidazo[1,2-a]pyrimidin-3-yl]methyl}-N-(2,5-dimethylphenyl)-3,8-diazabicyclo[3.2.1]octane-8-carboxamide] | 30000 nM | 750 nM
O=C(NC1CCCCC1)N1C2CCC1CN(Cc1c(-c3ccc(Cl)cc3)nc3ncccn13)C2 [Example 100, 3-{[2-(4-Chlorophenyl)imidazo[1,2-a]pyrimidin-3-yl]methyl}-N-cyclohexyl-3,8-diazabicyclo[3.2.1]octane-8-carboxamide] | 19000 nM | 630 nM
